Assay results: patent publication US11498923B2 (Merck Sharp & Dohme Corp., priority 2017, dated 2022)

target: T1, human A2a receptor (Homo sapiens, UniProt P29274); experiment: A2a receptor competition binding assay (Scintillation Proximity); conditions: membranes from HEK293 cells expressing human A2a receptor; 0.5 nM tritiated ligand; Cheng-Prusoff; read-out: A2a Ki
T1 construct: purchased Perkin-Elmer RBHA2AM400UA; host or cells: HEK293 cells, used as a membrane preparation
In short: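 Ki values were obtained with the Cheng-Prusoff equation from competition curves against 0.5 nM tritiated antagonist, scintillation proximity counting after 1 h room-temperature incubation. Receptor came from HEK293 membranes pretreated with adenosine deaminase; compound final range 3000–0.15 nM, buffer Ca/Mg-free PBS with 10 mM MgCl2.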

T1 sequence (P29274 whole entry): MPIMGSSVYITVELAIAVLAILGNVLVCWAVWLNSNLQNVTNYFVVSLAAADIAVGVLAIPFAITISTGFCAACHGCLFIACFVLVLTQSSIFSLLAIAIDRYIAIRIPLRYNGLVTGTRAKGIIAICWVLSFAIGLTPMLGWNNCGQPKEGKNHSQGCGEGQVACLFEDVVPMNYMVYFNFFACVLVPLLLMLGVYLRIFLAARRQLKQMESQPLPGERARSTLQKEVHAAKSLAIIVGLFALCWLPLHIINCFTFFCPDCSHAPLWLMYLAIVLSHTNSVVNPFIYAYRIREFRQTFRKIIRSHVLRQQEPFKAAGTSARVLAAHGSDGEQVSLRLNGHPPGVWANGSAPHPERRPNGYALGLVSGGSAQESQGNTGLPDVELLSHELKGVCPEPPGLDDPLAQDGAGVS

**Q.** `CC(=O)N1CCN(c2ccccc2CNC(=O)c2cn3c(N)nc4c(F)cccc4c3n2)CC1` [Ex-264, N-(2-(4-acetylpiperazin-1-yl)benzyl)-5-amino-7-fluoroimidazo[1,2-c]quinazoline-2-carboxamide] was tested. Which Ki did it give?
**A.** Its Ki is 2.5 nM.

**Q.** Which Ki does the source give for `CC(C)(C)OC(=O)N1CCCC2(CCN(C(=O)c3cn4c(N)nc5c(F)cccc5c4n3)CC2)C1` [Ex-265, tert-butyl 9-(5-amino-7-fluoroimidazo[1,2-c]quinazoline-2-carbonyl)-2,9-diazaspiro[5.5]undecane-2-carboxylate] here?
**A.** Its Ki is 86 nM.

**Q.** For `Nc1nc2c(F)cccc2c2nc(C(=O)N3CCCC4(CCNC4)C3)cn12` (stereo not shown) [Ex-266, (5-amino-7-fluoroimidazo[1,2-c]quinazolin-2-yl)(2,7-diazaspiro[4.5]decan-7-yl)methanone], which Ki is on record?
**A.** Its Ki is 220 nM.

**Q.** For `Nc1nc2c(F)cccc2c2nc(C(=O)N3CCC4(CCNC4)CC3)cn12` [Ex-267, (5-amino-7-fluoroimidazo[1,2-c]quinazolin-2-yl)(2,8-diazaspiro[4.5]decan-8-yl)methanone], which Ki is on record?
**A.** Its Ki is 710 nM.

**Q.** Which Ki does the source give for `Nc1nc2c(F)cccc2c2nc(C(=O)N3CCCC4(CCNC4)C3)cn12` (stereo not shown) [Ex-268, (5-amino-7-fluoroimidazo[1,2-c]quinazolin-2-yl)(2,7-diazaspiro[4.5]decan-7-yl)methanone] here?
**A.** The Ki was 66 nM.

**Q.** For `CC(=O)N1CCC2(CCN(C(=O)c3cn4c(N)nc5c(F)cccc5c4n3)CC2)C1` [Ex-269, 1-(8-(5-amino-7-fluoroimidazo[1,2-c]quinazoline-2-carbonyl)-2,8-diazaspiro[4.5]decan-2-yl)ethan-1-one], which Ki is on record?
**A.** Its Ki is 200 nM.

**Q.** Which Ki does the source give for `Nc1nc2c(F)cccc2c2nc(C(=O)N3CCC4(CCCNC4)CC3)cn12` [Ex-270, (5-amino-7-fluoroimidazo[1,2-c]quinazolin-2-yl)(2,9-diazaspiro[5.5]undecan-9-yl)methanone] here?
**A.** Its Ki is 100 nM.

**Q.** Which Ki does the source give for `Nc1nc2c(F)cccc2c2nc(C(=O)NCc3ccccc3N3CCN(CCCO)CC3)cn12` [Ex-271, 5-amino-7-fluoro-N-(2-(4-(3-hydroxypropyl)-piperazin-1-yl)benzyl)-imidazo[1,2-c]-quinazoline-2-carboxamide] here?
**A.** The Ki was 12 nM.

**Q.** For `Nc1nc2c(F)cccc2c2nc(C(=O)N3CCC4(CCNC4)C3)cn12` (stereo not shown) [Ex-272, (5-amino-7-fluoroimidazo[1,2-c]quinazolin-2-yl)(2,7-diazaspiro[4.4]nonan-2-yl)methanone], which Ki is on record?
**A.** The Ki was 380 nM.

**Q.** For `Nc1nc2c(F)cccc2c2nc(C(=O)N3CCC4(CCN(Cc5ccc(F)cc5)C4)C3)cn12` (stereo not shown) [Ex-273, (5-amino-7-fluoroimidazo[1,2-c]quinazolin-2-yl)(7-(4-fluorobenzyl)-2,7-diazaspiro[4.4]nonan-2-yl)methanone], which Ki is on record?
**A.** Its Ki is 110 nM.

**Q.** How did the Ki turn out when `CC(=O)N1CCC2(CCN(C(=O)c3cn4c(N)nc5c(F)cccc5c4n3)C2)C1` (stereo not shown) [Ex-274, 1-(7-(5-amino-7-fluoroimidazo[1,2-c]quinazoline-2-carbonyl)-2,7-diazaspiro[4.4]nonan-2-yl)ethan-1-one] was run?
**A.** Its Ki is 32 nM.

**Q.** With `N#Cc1ccc(N2CCC3(CCN(C(=O)c4cn5c(N)nc6c(F)cccc6c5n4)C3)C2)c(F)c1` (stereo not shown) [Ex-275, 4-(7-(5-amino-7-fluoroimidazo[1,2-c]quinazoline-2-carbonyl)-2,7-diazaspiro[4.4]nonan-2-yl)-3-fluorobenzonitrile] as the compound, how does the Ki read?
**A.** Its Ki is 43 nM.

**Q.** How did the Ki turn out when `CCCN1CCC2(CCCN(C(=O)c3cn4c(N)nc5c(F)cccc5c4n3)C2)C1` (stereo not shown) [Ex-276, (5-amino-7-fluoroimidazo[1,2-c]quinazolin-2-yl)(2-propyl-2,7-diazaspiro[4.5]decan-7-yl)methanone] was run?
**A.** Its Ki is 130 nM.

**Q.** Which Ki does the source give for `CCCN1CCC2(CCN(C(=O)c3cn4c(N)nc5c(F)cccc5c4n3)CC2)C1` [Ex-277, (5-amino-7-fluoroimidazo[1,2-c]quinazolin-2-yl)(2-propyl-2,8-diazaspiro[4.5]decan-8-yl)methanone] here?
**A.** The Ki was 430 nM.

**Q.** Which Ki does the source give for `CC(=O)N1CCCC2(CCN(C(=O)c3cn4c(N)nc5c(F)cccc5c4n3)CC2)C1` [Ex-278, 1-(9-(5-amino-7-fluoroimidazo[1,2-c]quinazoline-2-carbonyl)-2,9-diazaspiro[5.5]undecan-2-yl)ethan-1-one] here?
**A.** Its Ki is 61 nM.

**Q.** For `CCCN1CCCC2(CCN(C(=O)c3cn4c(N)nc5c(F)cccc5c4n3)CC2)C1` [Ex-279, (5-amino-7-fluoroimidazo[1,2-c]quinazolin-2-yl)(2-propyl-2,9-diazaspiro[5.5]undecan-9-yl)methanone], which Ki is on record?
**A.** The Ki was 34 nM.

**Q.** Which Ki does the source give for `CCN1CCC2(CCN(C(=O)c3cn4c(N)nc5c(F)cccc5c4n3)C2)C1` (stereo not shown) [Ex-280, (5-amino-7-fluoroimidazo[1,2-c]quinazolin-2-yl)(7-ethyl-2,7-diazaspiro[4.4]nonan-2-yl)methanone] here?
**A.** Its Ki is 100 nM.

**Q.** Which Ki does the source give for `Nc1nc2c(F)cccc2c2nc(C(=O)N3CCC4(CCN(CCc5ccc(F)cc5)C4)C3)cn12` (stereo not shown) [Ex-281, (5-amino-7-fluoroimidazo[1,2-c]quinazolin-2-yl)(7-(4-fluorophenethyl)-2,7-diazaspiro[4.4]nonan-2-yl)methanone] here?
**A.** The Ki was 170 nM.

**Q.** Which Ki does the source give for `Nc1nc2c(F)cccc2c2nc(C(=O)N3CCC4(CCN(C(=O)Cc5ccc(F)c(F)c5)C4)C3)cn12` (stereo not shown) [Ex-282, 1-(7-(5-amino-7-fluoroimidazo[1,2-c]quinazoline-2-carbonyl)-2,7-diazaspiro[4.4]nonan-2-yl)-2-(3,4-difluorophenyl)ethan-1-one] here?
**A.** The Ki was 32 nM.

**Q.** Which Ki does the source give for `Nc1nc2c(F)cccc2c2nc(C(=O)N3CCc4cc(CC(=O)Nc5ccccn5)ccc4C3)cn12` [Ex-283, 2-(2-(5-amino-7-fluoroimidazo[1,2-c]quinazoline-2-carbonyl)-1,2,3,4-tetrahydroisoquinolin-6-yl)-N-(pyridin-2-yl)acetamide] here?
**A.** The Ki was 21 nM.

**Q.** Which Ki does the source give for `Nc1nc2c(F)cccc2c2nc(C(=O)N3CCN4CCCC[C@@H]4C3)cn12` [Ex-284, (R)-(5-amino-7-fluoroimidazo[1,2-c]quinazolin-2-yl)(octahydro-2H-pyrido[1,2-a]pyrazin-2-yl)methanone] here?
**A.** The Ki was 33 nM.

**Q.** For `Nc1nc2c(F)cccc2c2nc(C(=O)N3CCN4CCCC[C@H]4C3)cn12` [Ex-285, (S)-(5-amino-7-fluoroimidazo[1,2-c]quinazolin-2-yl)(octahydro-2H-pyrido[1,2-a]pyrazin-2-yl)methanone], which Ki is on record?
**A.** The Ki was 40 nM.

**Q.** With `Nc1nc2c(F)cccc2c2nc(C(=O)N3CCc4cc(NC(=O)c5ccccn5)ccc4C3)cn12` [Ex-286, N-(2-(5-amino-7-fluoroimidazo[1,2-c]quinazoline-2-carbonyl)-1,2,3,4-tetrahydroisoquinolin-6-yl)picolinamide] as the compound, how does the Ki read?
**A.** Its Ki is 19 nM.

**Q.** With `Nc1nc2c(F)cccc2c2nc(C(=O)N3CCc4cc(-c5cncnc5)ccc4C3)cn12` [Ex-287, (5-amino-7-fluoroimidazo[1,2-c]quinazolin-2-yl)(6-(pyrimidin-5-yl)-3,4-dihydroisoquinolin-2(1H)-yl)methanone] as the compound, how does the Ki read?
**A.** The Ki was 35 nM.

**Q.** For `CC(=O)Nc1ccc2c(c1)CCN(C(=O)c1cn3c(N)nc4c(F)cccc4c3n1)C2` [Ex-288, N-(2-(5-amino-7-fluoroimidazo[1,2-c]quinazoline-2-carbonyl)-1,2,3,4-tetrahydroisoquinolin-6-yl)acetamide], which Ki is on record?
**A.** Its Ki is 55 nM.

**Q.** `Nc1nc2c(F)cccc2c2nc(C(=O)N3CCc4cc(-c5ccc(F)c(F)c5)ccc4C3)cn12` [Ex-289, (5-amino-7-fluoroimidazo[1,2-c]quinazolin-2-yl)(6-(3,4-difluorophenyl)-3,4-dihydroisoquinolin-2(1H)-yl)methanone] was tested. Which Ki did it give?
**A.** Its Ki is 640 nM.

**Q.** `Nc1nc2c(F)cccc2c2nc(C(=O)N3CCc4ccc(CC(=O)Nc5ccccn5)cc4C3)cn12` [Ex-290, 2-(2-(5-amino-7-fluoroimidazo[1,2-c]quinazoline-2-carbonyl)-1,2,3,4-tetrahydroisoquinolin-7-yl)-N-(pyridin-2-yl)acetamide] was tested. Which Ki did it give?
**A.** The Ki was 46 nM.

**Q.** With `Nc1nc2c(F)cccc2c2nc(C(=O)N3CCc4ccc(NC(=O)c5ccccn5)cc4C3)cn12` [Ex-291, N-(2-(5-amino-7-fluoroimidazo[1,2-c]quinazoline-2-carbonyl)-1,2,3,4-tetrahydroisoquinolin-7-yl)picolinamide] as the compound, how does the Ki read?
**A.** The Ki was 47 nM.

**Q.** Which Ki does the source give for `Nc1nc2c(F)cccc2c2nc(C(=O)NCc3cccc(Br)n3)cn12` [Ex-294, 5-amino-N-((6-bromopyridin-2-yl)methyl)-7-fluoroimidazo[1,2-c]quinazoline-2-carboxamide] here?
**A.** Its Ki is 5.3 nM.

**Q.** `Cc1cccc(CNC(=O)c2cn3c(N)nc4c(F)cccc4c3n2)n1` [Ex-295, 5-amino-7-fluoro-N-((6-methylpyridin-2-yl)methyl)imidazo[1,2-c]quinazoline-2-carboxamide] was tested. Which Ki did it give?
**A.** Its Ki is 6.2 nM.

**Q.** With `C[C@H](NC(=O)c1cn2c(N)nc3c(F)cccc3c2n1)c1ccccc1` [Ex-296, (S)-5-amino-7-fluoro-N-(1-phenylethyl)imidazo[1,2-c]quinazoline-2-carboxamide] as the compound, how does the Ki read?
**A.** Its Ki is 28 nM.

**Q.** With `C[C@@H](NC(=O)c1cn2c(N)nc3c(F)cccc3c2n1)c1ccccc1` [Ex-297, (R)-5-amino-7-fluoro-N-(1-phenylethyl)imidazo[1,2-c]quinazoline-2-carboxamide] as the compound, how does the Ki read?
**A.** The Ki was 2.3 nM.

**Q.** How did the Ki turn out when `Nc1nc2c(F)cccc2c2nc(C(=O)NCc3ccccn3)cn12` [Ex-298, 5-amino-7-fluoro-N-(pyridin-2-ylmethyl)imidazo[1,2-c]quinazoline-2-carboxamide] was run?
**A.** Its Ki is 14 nM.

**Q.** How did the Ki turn out when `Nc1nc2c(F)cccc2c2nc(CC3CCN(c4ncc(F)cn4)CC3)cn12` [Ex-300, 7-fluoro-2-((1-(5-fluoropyrimidin-2-yl)piperidin-4-yl)methyl)imidazo[1,2-c]quinazolin-5-amine] was run?
**A.** Its Ki is 12 nM.

**Q.** Which Ki does the source give for `Nc1nc2c(F)cccc2c2nc(CC3CCNCC3)cn12` [Ex-303, 7-fluoro-2-(piperidin-4-ylmethyl)imidazo-[1,2-c]quinazolin-5-amine] here?
**A.** Its Ki is 170 nM.

**Q.** Which Ki does the source give for `Nc1nc2c(F)cccc2c2nc(CC3CCN(Cc4ccccc4)CC3)cn12` [Ex-304, 2-((1-benzylpiperidin-4-yl)methyl)-7-fluoro-imidazo[1,2-c]quina-zolin-5-amine] here?
**A.** Its Ki is 45 nM.

**Q.** With `Nc1nc2c(F)cccc2c2nc(CC3CCN(CC4CC4)CC3)cn12` [Ex-305, 2-((1-(cyclopropyl-methyl)piperidin-4-yl)methyl)-7-fluoro-imidazo[1,2-c]quina-zolin-5-amine] as the compound, how does the Ki read?
**A.** The Ki was 220 nM.
